{
  "source": "patent US20260258003A1",
  "about": "“SLACK-ACTIVATING COMPOUNDS AND THEIR MEDICAL USE” (Johann Wolfgang Goethe-Universität Frankfurt am Main, priority 2023, published 2026)",
  "key": {"[1]": {"tested_on": "MC903-induced persistent itch behavior of mice", "assay": "MC903 model of persistent itch (skin inflammation)", "type": "in vivo", "conditions": "i.p. at day 8, vs vehicle", "description": "Similarly, the effect of Compound 6 was also examined in the MC903 model of skin inflammation, which has some characteristics of allergic contact dermatitis and atopic dermatitis^32.\nThe fur on the dorsolateral aspect of the neck was shaved under brief isoflurane anesthesia. Five days thereafter, 20 μL MC903 (0.2 mM; Calcipotriol, Tocris) solved in absolute ethanol was applied to the skin at the back of the neck in brief anesthesia for 7 consecutive days. On day 8, mice were habituated for 30 min in separate plexiglass cylinders (30 cm diameter). Compounds or vehicle (10% 2-hydroxypropyl-β-cyclodextrine in 0.9% saline) were i.p. administered, and 15 min thereafter spontaneous scratching was recorded over 30 min by videotaping (FIG. 10D). […] These findings are important, because they indicate that Slack activators can ameliorate pruritus that has already established."}, "[2]": {"tested_on": "chloroquine-induced scratching behavior of mice", "assay": "Chloroquine-induced itch model, topical application of creme", "type": "in vivo", "conditions": "5% in hydrophilic creme (Basiscreme DAC), topical 30 min prior to s.c. chloroquine", "description": "Animals: Experiments were performed in 8-16 week-old C57BL/6N mice (Charles River, Sulzfeld, Germany) of either sex. The animals were housed under a 12 h light/dark cycle with access to food and water ad libitum. All experiments adhered to the Animal Research: Reporting on In Vivo Experiments (ARRIVE) guidelines and were approved by and conducted in accordance with the regulations of the local Animal Welfare authorities (Regierungspräsidium Darmstadt, Germany; approval number V54-19c20/15-FR/2011). All behavioral studies were conducted during the light cycle of the day at room temperature (20-24° C.) by an observer blinded for the treatment of the animals.\nDrug formulation: A creme formulation of Compound 6 and Compound 21 was prepared by mixing a hydrophilic creme (Basiscreme DAC) with 5% of each Slack activator.\nBehavioral assessment: Three to four days before the day of the experiment, the fur on the dorsolateral aspect of the neck was shaved under brief isoflurane anesthesia. On the testing day, Compound 6 creme, Compound 21 creme, or creme vehicle were applied topically on the shaved region of the neck under brief isoflurane anesthesia and the mice were habituated to a Plexiglas cylinder (30 cm in diameter) for 30 min immediately thereafter. […] The number of scratching bouts directed towards the nape of the neck was assessed over 30 min by videotaping."}, "[3]": {"target": "T1, short form of dopamine receptor D2 (D2S) (Homo sapiens, UniProt P14416)", "T1 construct": "Eurofins SafetyScreen44", "T1 sequence (P14416 1-414 isoform P14416-2)": "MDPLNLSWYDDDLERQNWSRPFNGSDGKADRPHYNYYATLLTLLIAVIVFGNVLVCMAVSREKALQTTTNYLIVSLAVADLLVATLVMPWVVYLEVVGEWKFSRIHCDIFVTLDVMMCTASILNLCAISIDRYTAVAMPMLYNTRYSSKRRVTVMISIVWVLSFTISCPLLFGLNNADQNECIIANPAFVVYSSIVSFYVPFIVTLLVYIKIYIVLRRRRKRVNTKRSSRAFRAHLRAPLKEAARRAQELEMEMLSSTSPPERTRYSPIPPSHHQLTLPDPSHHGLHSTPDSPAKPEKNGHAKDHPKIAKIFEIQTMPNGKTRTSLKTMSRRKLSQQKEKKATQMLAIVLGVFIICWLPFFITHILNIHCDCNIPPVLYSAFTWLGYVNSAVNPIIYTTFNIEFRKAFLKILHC", "assay": "SafetyScreen44 binding", "conditions": "10 μM; substantial = higher than 50%", "description": "(§1) Compound enzyme inhibition effect was calculated as a % inhibition of control enzyme activity. […] Measurements were performed in duplicate."}, "[4]": {"target": "T2, cannabinoid receptor 1 (CB1) (Homo sapiens, UniProt P21554)", "T2 construct": "Eurofins SafetyScreen44", "T2 sequence (P21554 whole entry)": "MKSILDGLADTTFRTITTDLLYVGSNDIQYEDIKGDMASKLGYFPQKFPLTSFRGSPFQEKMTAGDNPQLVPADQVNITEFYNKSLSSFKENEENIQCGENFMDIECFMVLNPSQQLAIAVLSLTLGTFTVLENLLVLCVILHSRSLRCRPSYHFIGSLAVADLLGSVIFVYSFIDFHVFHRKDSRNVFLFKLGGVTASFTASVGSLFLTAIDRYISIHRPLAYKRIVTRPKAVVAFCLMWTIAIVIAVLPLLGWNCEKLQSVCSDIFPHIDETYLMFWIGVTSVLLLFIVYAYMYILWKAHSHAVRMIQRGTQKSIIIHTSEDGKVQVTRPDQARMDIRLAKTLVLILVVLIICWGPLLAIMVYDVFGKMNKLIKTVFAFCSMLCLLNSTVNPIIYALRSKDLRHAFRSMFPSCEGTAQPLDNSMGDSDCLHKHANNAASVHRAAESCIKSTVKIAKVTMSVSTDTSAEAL", "assay": "SafetyScreen44 binding", "conditions": "10 μM; substantial = higher than 50%", "description": "as §1"}, "Na+ channel": {"tested_on": "Na+ channel", "assay": "SafetyScreen44 binding", "design": "species or system rat", "conditions": "10 μM; substantial = higher than 50%"}, "muscarine M3 receptor": {"target": "T3, muscarine M3 receptor (Homo sapiens, UniProt P20309)", "T3 construct": "Eurofins SafetyScreen44", "T3 sequence (P20309 whole entry)": "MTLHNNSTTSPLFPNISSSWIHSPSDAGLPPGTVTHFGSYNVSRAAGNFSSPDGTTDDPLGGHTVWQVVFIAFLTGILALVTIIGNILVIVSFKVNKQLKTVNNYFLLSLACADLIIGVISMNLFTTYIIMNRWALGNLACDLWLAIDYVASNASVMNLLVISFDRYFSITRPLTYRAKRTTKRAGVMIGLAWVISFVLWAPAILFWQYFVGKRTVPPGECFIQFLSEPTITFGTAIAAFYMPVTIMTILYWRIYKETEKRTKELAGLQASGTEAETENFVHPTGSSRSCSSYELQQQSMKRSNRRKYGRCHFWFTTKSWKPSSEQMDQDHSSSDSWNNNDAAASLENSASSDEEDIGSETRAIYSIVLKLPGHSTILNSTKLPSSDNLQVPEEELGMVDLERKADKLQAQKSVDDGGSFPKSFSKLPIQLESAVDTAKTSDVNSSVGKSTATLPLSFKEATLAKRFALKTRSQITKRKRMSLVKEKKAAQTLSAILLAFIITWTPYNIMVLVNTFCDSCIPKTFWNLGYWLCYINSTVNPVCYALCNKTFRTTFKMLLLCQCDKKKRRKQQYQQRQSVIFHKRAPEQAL", "assay": "SafetyScreen44 binding", "conditions": "substantial = higher than 50%"}},
  "data": [
    {"compound": "O=C(O)COCCN1CCN(C2=Nc3ccccc3Oc3ccc(Cl)cc32)CC1", "note": "[Compound 6, 2-(2-(4-(2-Chlorodibenzo[b,f][1,4]oxazepin-11-yl)piperazin-1-yl)ethoxy) acetic acid]", "values": [
      {"measurement": "head shaking, MC903 model", "setting": "[1]", "value": "significantly ameliorated"},
      {"measurement": "scratching, MC903 model", "setting": "[1]", "value": "significantly ameliorated"},
      {"measurement": "chloroquine-induced scratching behavior after topical application", "setting": "[2]", "value": "significantly ameliorated scratching behavior"},
      {"measurement": "binding inhibition, D2S", "setting": "[3]", "value": "substantial binding"}
    ]},
    {"compound": "O=c1nc(CN2CCN(C3=Nc4ccccc4Oc4ccc(Cl)cc43)CC2)[nH][nH]1", "note": "[Compound 10, 5-((4-(2-Chlorodibenzo[b,f][1,4]oxazepin-11-yl)piperazin-1-yl)methyl)-1,2-dihydro-3H-1,2,4-triazol-3-one]", "values": [
      {"measurement": "binding inhibition, CB1", "setting": "[4]", "value": "substantial binding inhibition"}
    ]},
    {"compound": "CN1CCN(C2=Nc3ccccc3Oc3ccc(Cl)cc32)CC1", "note": "[Loxapine, 2-chloro-11-(4-methylpiperazin-1-yl)dibenzo[b,f][1,4]oxazepine, reference compound]", "values": [
      {"measurement": "binding inhibition, Na+ channel", "setting": "Na+ channel", "value": "higher than 50%"},
      {"measurement": "inhibition at 10 µM", "setting": "muscarine M3 receptor", "value": "> 50", "unit": "%"}
    ]}
  ]
}
